Measurements: US20260007613A1, “LONG-ACTING LOW-TOXICITY NOVEL CATIONIC LIPID COMPOUNDS AND COMPOSITION THEREOF” (BEIJING YOUCAREKECHUANG PHARMACEUTICAL TECHNOLOGY CO., LTD., priority 2023, published 2026)
Where “and” joins values, the source holds several entries; their conditions need not be identical. Equal values may be shown once.

Key:
liver = test: Distribution of liposomes in mice: protein expression in the liver (live imaging); assay type: in vivo; details: at 6 h
Protocol: The LNP formulation containing […] Fluc-mRNA was injected intramuscularly into female BALB/C mice aged 4 to 6 weeks old and weighed 17 to 19 g, and the mice were intraperitoneally injected with fluorescent imaging substrate at specific time points after administration (6 h, 24 h, 48 h and 7 d), where the mice were free to move for 5 minutes, and then the average radiation intensity (corresponding to fluorescence expression intensity) of the protein expression of the mRNA carried by the LNP in the mice was detected by the IVIS Spectrum small animal live imaging device.
At 24 h, the LNP formulations prepared from all compounds had been metabolized in the liver and had no protein expression.

female BALB/C mice = test: Live imaging in mice: protein expression of Fluc-mRNA delivered by LNP formulations; assay type: in vivo; details: for average radiation intensity, times that of ALC-0315: comparator ALC-0315; for average radiation intensity, times that of HHMA: comparator HHMA; for average radiation intensity, times that of SM-102: comparator SM-102; for expression of mRNA in mice, times that of YK-302: comparator YK-302; for expression amount, times that of YK-309: comparator YK-309; for expression amount, times that of YK-313: comparator YK-313; for expression amount, times that of YK-321: comparator YK-321; for average radiation intensity, times that of compound 21: comparator compound 21; for average radiation intensity, times that of compound 23: comparator compound 23
Procedure, shortened: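 Female BALB/C mice (4-6 weeks, 17-19 g) received LNP-formulated Fluc-mRNA […] intramuscularly. At 6 h, 24 h, 48 h and 7 d, luciferase substrate given intraperitoneally, and after 5 min average radiance measured by IVIS whole-body imaging.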

293T cells [1] = test: Cell survival rate determination (CCK-8); assay type: cell-based
Procedure, shortened: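 Readout was CCK-8 absorbance (450 nm, 1 h) taken after a 24 h exposure of overnight-adhered 293T cells (10,000 per well, 96-well) to Lipofectamine 3000 or to LNPs carrying Fluc-mRNA, lipid molar ratio 49:10:39.5:1.5 cationic/neutral/structured/polymer-conjugated.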

293T cells [2] = test: Fluorescent detection of Fluc-mRNA (cell transfection efficiency of LNP formulations); assay type: cell-based
Procedure, shortened: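 Transfection read-out: IVIS imaging after […], 24 h after adding LNPs (lipid molar ratio 49:10:39.5:1.5 cationic/neutral/structured/polymer-lipid; […] Fluc-mRNA). Adherent 293T cells were seeded overnight at 10,000 per well beforehand.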

[3] = Particle size and polydispersity index (PDI) of lipid nanoparticles by dynamic light scattering; assay type: physicochemical; details: LNP formulation prepared from the cationic lipid, 25° C.
Protocol: The particle size and polydispersity index (PDI) were determined by dynamic light scattering using Malvern laser particle size analyzer.
10 μL of the liposome solution was weighed, diluted to 1 mL with RNase-free deionized water, and added to the sample pool. Each sample was measured in triplicate. The measurement conditions were: […] scattering angle, and 25° C.

CCCCCCCCC(CCCCCCCC)COC(=O)CCCCCN(CCCCCC(=O)OCC(CCCCCCCC)CCCCCCCC)C[C@H](O)CN(C)CCO [YK-305, (R)-Bis(2-octyldecyl)-6,6′-((2-hydroxy-3-((2-hydroxyethyl)(methyl)amino)propyl)azanediyl)dihexanoate]
expression amount in the liver compared with ALC-0315 and SM-102 (liver): reduced | protein expression in the liver (liver; intramuscular injection): had protein expression in the liver | average radiation intensity, times that of ALC-0315 (female BALB/C mice; 6 h): 10.70 times | average radiation intensity, times that of HHMA (female BALB/C mice; 6 h): 14.19 times | average radiation intensity, times that of SM-102 (female BALB/C mice; 6 h): 13.18 times | expression of mRNA in mice, times that of YK-302 (female BALB/C mice; 6 h): 633.70 times | expression amount, times that of YK-309 (female BALB/C mice; 6 h): 140.67 times | expression amount, times that of YK-313 (female BALB/C mice; 6 h): 20.89 times | expression amount, times that of YK-321 (female BALB/C mice; 6 h): 17.92 times | average radiation intensity, times that of compound 21 (female BALB/C mice; 6 h): 15.14 times | average radiation intensity, times that of compound 23 (female BALB/C mice; 6 h): 15.68 times | average radiation intensity (female BALB/C mice; 6 h after intramuscular injection): 9239340 | average radiation intensity, times that of ALC-0315 (female BALB/C mice; 24 h): 14.82 times | average radiation intensity, times that of HHMA (female BALB/C mice; 24 h): 23.54 times | average radiation intensity, times that of SM-102 (female BALB/C mice; 24 h): 23.44 times | expression of mRNA in mice, times that of YK-302 (female BALB/C mice; 24 h): 713.70 times | expression amount, times that of YK-309 (female BALB/C mice; 24 h): 167.86 times | expression amount, times that of YK-313 (female BALB/C mice; 24 h): 27.04 times | expression amount, times that of YK-321 (female BALB/C mice; 24 h): 27.89 times | average radiation intensity, times that of compound 21 (female BALB/C mice; 24 h): 25.70 times | average radiation intensity, times that of compound 23 (female BALB/C mice; 24 h): 27.01 times | average radiation intensity (female BALB/C mice; 24 h after intramuscular injection): 2823400 | average radiation intensity, times that of ALC-0315 (female BALB/C mice; 48 h): 26.32 times | average radiation intensity, times that of HHMA (female BALB/C mice; 48 h): 32.18 times | average radiation intensity, times that of SM-102 (female BALB/C mice; 48 h): 32.19 times | expression amount, times that of YK-309 (female BALB/C mice; 48 h): 159.93 times and ~160 times | expression amount, times that of YK-313 (female BALB/C mice; 48 h): 40.99 times | expression amount, times that of YK-321 (female BALB/C mice; 48 h): 28.65 times | average radiation intensity, times that of compound 21 (female BALB/C mice; 48 h): 33.82 times | average radiation intensity, times that of compound 23 (female BALB/C mice; 48 h): 31.63 times | average radiation intensity (female BALB/C mice; 48 h after intramuscular injection): 1047720 | average radiation intensity, times that of ALC-0315 (female BALB/C mice; 7 d): 18.02 times | average radiation intensity, times that of HHMA (female BALB/C mice; 7 d): 21.63 times | average radiation intensity, times that of SM-102 (female BALB/C mice; 7 d): 19.18 times | expression amount, times that of YK-309 (female BALB/C mice; 7 d): 101.13 times and ~100 times | expression amount, times that of YK-313 (female BALB/C mice; 7 d): 39.26 times | expression amount, times that of YK-321 (female BALB/C mice; 7 d): 19.29 times | average radiation intensity, times that of compound 21 (female BALB/C mice; 7 d): 19.71 times | average radiation intensity, times that of compound 23 (female BALB/C mice; 7 d): 20.35 times | average radiation intensity (female BALB/C mice; 7 d after intramuscular injection): 127015 | Cell survival rate (%) (293T cells [1]; LNP formulation of Fluc-mRNA, 24 hours, CCK-8): 82.18% | cell survival rate higher than ALC-0315 (293T cells [1]; difference of survival rates, comparator ALC-0315): 31.15% and ~30% | cell survival rate higher than HHMA (293T cells [1]; difference of survival rates, comparator HHMA): 15.71% and ~15% | cell survival rate higher than Lipofectamine 3000 (293T cells [1]; difference of survival rates, comparator Lipofectamine 3000): 57.17% | cell survival rate higher than SM-102 (293T cells [1]; difference of survival rates, comparator SM-102): 12.73% and ~12% | cell survival rate higher than YK-301 (293T cells [1]; difference of survival rates, comparator YK-301): 29.22% | cell survival rate higher than YK-302 (293T cells [1]; difference of survival rates, comparator YK-302): 65.75% and ~65% and ~50% | cell survival rate higher than YK-303 (293T cells [1]; difference of survival rates, comparator YK-303): 18.86% | cell survival rate higher than YK-304 (293T cells [1]; difference of survival rates, comparator YK-304): 48.02% | cell survival rate higher than YK-306 (293T cells [1]; difference of survival rates, comparator YK-306): 39.99% | cell survival rate higher than YK-307 (293T cells [1]; difference of survival rates, comparator YK-307): 21.04% | cell survival rate higher than YK-308 (293T cells [1]; difference of survival rates, comparator YK-308): 11.19% | cell survival rate higher than YK-309 (293T cells [1]; difference of survival rates, comparator YK-309): 50.57% | cell survival rate higher than YK-311 (293T cells [1]; difference of survival rates, comparator YK-311): 12.12% | cell survival rate higher than YK-313 (293T cells [1]; difference of survival rates, comparator YK-313): 13.25% | cell survival rate higher than YK-314 (293T cells [1]; difference of survival rates, comparator YK-314): 14.30% | cell survival rate higher than YK-315 (293T cells [1]; difference of survival rates, comparator YK-315): 10.90% | cell survival rate higher than YK-316 (293T cells [1]; difference of survival rates, comparator YK-316): 11.65% | cell survival rate higher than YK-317 (293T cells [1]; difference of survival rates, comparator YK-317): 23.00% and ~20% | cell survival rate higher than YK-320 (293T cells [1]; difference of survival rates, comparator YK-320): 11.110% | cell survival rate higher than YK-321 (293T cells [1]; difference of survival rates, comparator YK-321): 9.84% | cell survival rate higher than compound 21 (293T cells [1]; difference of survival rates, comparator compound 21): 11.97% | cell survival rate higher than compound 23 (293T cells [1]; difference of survival rates, comparator compound 23): 10.68% | Relative light unit (RLU) (293T cells [2]; LNP formulation of Fluc-mRNA, 96-well plate, 24 hours): 27408734 RLU | Multiples (YK-305) (293T cells [2]; RLU of YK-305 / RLU of the lipid of the line): 1.00 | Multiples (YK-310) (293T cells [2]; RLU of YK-310 / RLU of the lipid of the line): 0.94 | Multiples (YK-312) (293T cells [2]; RLU of YK-312 / RLU of the lipid of the line): 0.74 | Multiples (YK-318) (293T cells [2]; RLU of YK-318 / RLU of the lipid of the line, Tables 5, 7, 11): 0.41 | Multiples (YK-319) (293T cells [2]; RLU of YK-319 / RLU of the lipid of the line, Tables 5, 7, 11): 0.89 | Ratio relative to SM-102 (293T cells [2]; RLU of the lipid / RLU of SM-102, times that of SM-102): 17.09 | cell transfection efficiency, times that of ALC-0315 (293T cells [2]; comparator ALC-0315): 13.48 times | cell transfection efficiency, times that of HHMA (293T cells [2]; comparator HHMA): 13.66 times | cell transfection efficiency, times that of Lipofectamine 3000 (293T cells [2]; comparator Lipofectamine 3000): 23.12 times | cell transfection efficiency, times that of YK-009 (293T cells [2]; comparator YK-009): 5.35 times | cell transfection efficiency, times that of YK-301 (293T cells [2]; comparator YK-301): 32.53 times | cell transfection efficiency, times that of YK-303 (293T cells [2]; comparator YK-303): 43.76 times | cell transfection efficiency, times that of YK-306 (293T cells [2]; comparator YK-306): 12.47 times | cell transfection efficiency, times that of YK-307 (293T cells [2]; comparator YK-307): 6.01 times | cell transfection efficiency, times that of YK-308 (293T cells [2]; comparator YK-308): 5.44 times | cell transfection efficiency, times that of YK-309 (293T cells [2]; comparator YK-309): ~210 times and 218.62 times and ~200 times | cell transfection efficiency, times that of YK-311 (293T cells [2]; comparator YK-311): 13.96 times | cell transfection efficiency, times that of YK-313 (293T cells [2]; comparator YK-313): 31.63 times | cell transfection efficiency, times that of YK-314 (293T cells [2]; comparator YK-314): 50.07 times | cell transfection efficiency, times that of YK-315 (293T cells [2]; comparator YK-315): 17.27 times | cell transfection efficiency, times that of YK-316 (293T cells [2]; comparator YK-316): 5.70 times | cell transfection efficiency, times that of YK-317 (293T cells [2]; comparator YK-317): 7.60 times | cell transfection efficiency, times that of YK-320 (293T cells [2]; comparator YK-320): 10.14 times | cell transfection efficiency, times that of YK-321 (293T cells [2]; comparator YK-321): 19.53 times and ~20 times | cell transfection efficiency, times that of compound 21 (293T cells [2]; comparator compound 21): 19.14 times | cell transfection efficiency, times that of compound 23 (293T cells [2]; comparator compound 23): 20.21 times | PDI (%) [3]: 10.7% | Particle size (nm) [3]: 191 nm
